Measured values as given in patent publication US20250326748A1, “COMPOUNDS AND METHODS FOR MODULATING SPLICING” (REMIX THERAPEUTICS INC., priority 2022, published 2025).
Structures can show the parent of a compound that is named as a salt.

Assays:
HiBiT-tagged MYB protein = experiment: HiBiT protein abundance assay, MYB (K562 HiBiT knock-in); format: cell-based, human; conditions: HiBiT knock-in cells, 24 hours
How it was run: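 Endogenously HiBiT-tagged K562 knock-in lines treated 24 h at 37 °C with 10-point 3-fold dilutions (top 10 μM final, DMSO ≤0.25%) in IMDM+1% FBS. Lytic Nano-Glo luminescence normalized to DMSO and unmodified K562 controls; four-parameter fit gives 50%-abundance concentration (IC50).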

SMN2 mRNA = experiment: Splicing RT-qPCR panel, SMN2 canonical junction (CJ) mRNA; format: cell-based, human; conditions: Homo sapiens, read-out: SMN2 CJ (decrease in CJ mRNA levels, IC50)
How it was run: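 A673 cells (DMEM, 10% FBS) or K562 cells (IMDM, 10% FBS) treated 24 h at 37 °C with an 11-point 3-fold dilution, top 10 uM, DMSO ≤0.25%. Canonical-junction mRNA quantified in lysates by RT-qPCR, normalised to GAPDH, GUSB or PPIA and to DMSO (2^−ΔΔCt), then converted to % response.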

Row | Compound | IC50 (HiBiT-tagged MYB protein) [nM] | IC50 (SMN2 mRNA) [nM]
1 | CC1CN(c2cnc3nc(-c4cc(F)c5nn(C)cc5c4)cc(Cl)c3c2)CCN1 (stereo not shown) [Compound 203, 4-chloro-2-(7-fluoro-2-methyl-2H-indazol-5-yl)-6-(3-methylpiperazin-1-yl)-1,8-naphthyridine 2,2,2-trifluoroacetate] | 100 to 1000 | < 100
2 | C[C@@H]1CN(c2cnc3nc(-c4cc(F)c5nn(C)cc5c4)cc(Cl)c3c2)C[C@H](C)N1 [Compound 215] | 100 to 1000 | < 100
3 | CNC1CCN(c2cnc3nc(-c4cc5cn(C)nc5c(C)c4O)nc(OC)c3c2)C1 (stereo not shown) [Compound 161, 5-{4-methoxy-6-[3-(methylamino)pyrrolidin-1-yl]pyrido[2,3-d]pyrimidin-2-yl}-2,7-dimethylindazol-6-ol] | < 100 | < 100
4 | C[C@H]1CN(c2cnc3nc(-c4cc(F)c5nn(C)cc5c4)cc(Cl)c3c2)C[C@H](C)N1 [Compound 250] | < 100 | < 100
5 | Cn1cc2cc(-c3cc(Cl)c4cc(N5CCNCC5)cnc4n3)c(O)cc2n1 [Compound 102, 5-[4-chloro-6-(piperazin-1-yl)-1,8-naphthyridin-2-yl]-2-methylindazol-6-ol] | < 100 | < 100
6 | C[C@@H]1CN(c2cnc3nc(-c4cc(F)c5nn(C)cc5c4)cc(Cl)c3c2)C[C@@H](C)N1 [Compound 251] | 100 to 1000 | < 100
7 | CN[C@@H]1CCN(c2cnc3nc(-c4cc5cn(C)nc5c(F)c4O)cc(Cl)c3c2)C1 [Compound 271] | < 100 | < 100
8 | Cn1cc2cc(-c3cnc4cc(N5CCC(NC6CC6)C5)ccc4n3)c(O)c(F)c2n1 (stereo not shown) [Compound 175, 5-[6-[3-(cyclopropylamino)pyrrolidin-1-yl]quinoxalin-2-yl]-7-fluoro-2-methyl-indazol-6-ol] | < 100 | < 100
9 | Cc1c(O)c(-c2ncc3cc(N4CC[C@H](N)C4)cnc3n2)cc2cn(C)nc12 [Compound 160, (S)-5-(6-(3-aminopyrrolidin-1-yl)pyrido[2,3-d]pyrimidin-2-yl)-2,7-dimethyl-2H-indazol-6-ol 2,2,2-trifluoroacetate] | < 100 | < 100
10 | Cn1cc2cc(-c3cc(Cl)c4cc(N5CCNC(C6CC6)C5)cnc4n3)cc(F)c2n1 (stereo not shown) [Compound 209, 4-chloro-6-(3-cyclopropylpiperazin-1-yl)-2-(7-fluoro-2-methylindazol-5-yl)-1,8-naphthyridine] | 100 to 1000 | < 100
11 | Cc1c(O)c(-c2ccc3nc(N4CCNCC4)cnc3n2)cc2cn(C)nc12 [Compound 197, 2,7-dimethyl-5-[2-(piperazin-1-yl)pyrido[2,3-b]pyrazin-6-yl]indazol-6-ol] | 100 to 1000 | < 100
12 | Cn1cc2cc(-c3cnc4cc(N5CC[C@@H](NC6CC6)C5)ccc4n3)c(O)c(F)c2n1 [Compound 177, 5-[6-[(3R)-3-(cyclopropylamino)318quinoxaline-1-yl]318quinoxaline-2-yl]-7-fluoro-2-methyl-indazol-6-ol] | < 100 | < 100
13 | Cc1c(O)c(-c2ccc3nc(N4C[C@@H](C)N[C@@H](C)C4)cnc3n2)cc2cn(C)nc12 [Compound 195, 5-{2-[(3R,5S)-3,5-dimethylpiperazin-1-yl]pyrido[2,3-b]pyrazin-6-yl}-2,7-dimethylindazol-6-ol] | 100 to 1000 | < 100
14 | CN(C)[C@@H]1CCN(c2cnc3nc(-c4cc5cn(C)nc5c(F)c4O)cc(Cl)c3c2)C1 [Compound 220] | < 100 | < 100
15 | CNC1CCN(c2cnc3nc(-c4cc(F)c5nc(C)cn5c4)ccc3c2)C1 (stereo not shown) [Compound 100, 1-(7-{8-fluoro-2-methylimidazo[1,2-a]pyridin-6-yl}-1,8-naphthyridin-3-yl)-N-methylpyrrolidin-3-amine] | < 100 | < 100
16 | Cc1cn2cc(-c3cnc4nc(C5CCNCC5)ccc4c3)cc(C)c2n1 [Compound 201] | 1000 to 10000 | < 100
17 | Cn1cc2cc(-c3cc(Cl)c4cc(N5CCNCC5)cnc4n3)c(O)c(F)c2n1 [Compound 155, 5-[4-chloro-6-(piperazin-1-yl)-1,8-naphthyridin-2-yl]-7-fluoro-2-methylindazol-6-ol] | < 100 | < 100
18 | Cn1cc2cc(-c3ccc4cc(N5CC[C@@H](NC(C)(C)C)C5)cnc4n3)c(O)cc2n1 [Compound 199] | < 100 | 100 to 1000
19 | Cc1c(O)c(-c2ncc3cc(N4C[C@@H](C)N[C@@H](C)C4)cnc3n2)cc2cn(C)nc12 [Compound 214] | 100 to 1000 | < 100
20 | Cc1c(O)c(-c2cc(-c3ccccn3)c3cc(N4C[C@@H](C)N[C@@H](C)C4)cnc3n2)cc2cn(C)nc12 [Compound 217, 5-{6-[(3R,5S)-3,5-dimethylpiperazin-1-yl]-4-(pyridin-2-yl)-1,8-naphthyridin-2-yl}-2,7-dimethylindazol-6-ol] | 1000 to 10000 | > 10000
21 | CN[C@@H]1CCN(c2cnc3nc(-c4cc5cn(C)nc5c(C)c4O)nc(OC)c3c2)C1 [Compound 211, 5-{4-methoxy-6-[(3R)-3-(methylamino)pyrrolidin-1-yl]pyrido[2,3-d]pyrimidin-2-yl}-2,7-dimethylindazol-6-ol] | < 100 | < 100
22 | CN(C)[C@H]1CCN(c2cnc3nc(-c4cc5cn(C)nc5c(F)c4O)cc(Cl)c3c2)C1 [Compound 221] | < 100 | < 100
23 | CNC1CCN(c2cnc3nc(-c4cc5cn(C)nc5c(C)c4O)cc(OC)c3n2)C1 (stereo not shown) [Compound 194, 5-{8-methoxy-2-[3-(methylamino)360pyrrolidine-1-yl]pyrido[2,3-b]pyrazin-6-yl}-2,7-dimethylindazol-6-ol] | 1000 to 10000 | 100 to 1000
24 | Cc1cn2nc(-c3ccc4cc(N(C)C5CCNCC5)cnc4n3)cc(C)c2n1 [Compound 205, 7-{2,8-dimethylimidazo[1,2-b]pyridazin-6-yl}-N-methyl-N-(piperidin-4-yl)-1,8-naphthyridin-3-amine] | 1000 to 10000 | 100 to 1000
25 | C[C@@H]1CN(c2cnc3nc(-c4cc5cn(C)nc5cc4O)cc(Cl)c3c2)C[C@H](C)N1 [Compound 208] | < 100 | < 100
26 | Cc1c(O)c(-c2cc(Cl)c3cc(N4CCNCC4)cnc3n2)cc2cn(C)nc12 [Compound 154, 5-[4-chloro-6-(piperazin-1-yl)-1,8-naphthyridin-2-yl]-2,7-dimethylindazol-6-ol] | < 100 | < 100
27 | C[C@@H]1CN(c2cnc3nc(-c4cc5cn(C)nc5c(F)c4O)cc(C#N)c3c2)C[C@H](C)N1 [Compound 266, 6-[(3R,5S)-3,5-dimethylpiperazin-1-yl]-2-(7-fluoro-6-hydroxy-2-methylindazol-5-yl)-1,8-naphthyridine-4-carbonitrile hydrochloride] | < 100 | < 100
28 | CNC1CCN(c2cnc3nc(-c4cc5cn(C)nc5cc4O)cc(Cl)c3c2)C1 (stereo not shown) [Compound 213, 5-{4-chloro-6-[3-(methylamino)370pyrrolidine-1-yl]-1,8-naphthyridin-2-yl}-2-methylindazol-6-ol] | < 100 | < 100
29 | COc1nc(-c2cc3cn(C)nc3c(F)c2O)nc2ncc(N3C[C@@H](C)N[C@@H](C)C3)cc12 [Compound 218] | < 100 | < 100
